{"source": "patent US20120189739A1", "about": "“Naturally-Sweetened Reduced-Calorie Base Syrup Compositions and Compositions Sweetened Therewith” (IMPERIAL SUGAR COMPANY, priority 2010, published 2012)", "origin": "cited, not measured here", "conditions": "Prakash et al. 2008; Kinghorn et al. 1999", "data": [{"smiles": "C=C1C[C@@]23CC[C@H]4[C@@](C)(CCC[C@@]4(C)C(=O)O[C@@H]4O[C@H](CO)[C@@H](O)[C@H](O)[C@H]4O)[C@@H]2CC[C@]1(O[C@@H]1O[C@H](CO)[C@@H](O)[C@H](O[C@@H]2O[C@H](CO)[C@@H](O)[C@H](O)[C@H]2O)[C@H]1O[C@@H]1O[C@H](CO)[C@@H](O)[C@H](O)[C@H]1O)C3", "note": "[rebaudioside A]", "values": [{"measurement": "times sweeter than sucrose", "value": "200-300 times"}]}, {"smiles": "C=C1C[C@@]23CC[C@H]4[C@@](C)(CCC[C@@]4(C)C(=O)O[C@@H]4O[C@H](CO)[C@@H](O)[C@H](O)[C@H]4O)[C@@H]2CC[C@]1(O[C@@H]1O[C@H](CO)[C@@H](O)[C@H](O)[C@H]1O[C@@H]1O[C@H](CO)[C@@H](O)[C@H](O)[C@H]1O)C3", "note": "[stevioside]", "values": [{"measurement": "times sweeter than sucrose", "value": "about 200 times"}]}]}
